Measured values taken from patent publication US11111238B2, “Coumarin derivatives, processes for their preparation and uses thereof for the treatment of cancer” (Lead Discovery Center GmbH, priority 2017, dated 2021).

Legend:
[1] = biological target: mitochondrial RNA-polymerase (POLRMT) (Mus musculus, UniProt Q8BKF1); assay: Homogeneous TR-FRET assay for mitochondrial transcription activity; type: biochemical; conditions: homogeneous TR-FRET assay according to Example 4; activity class
How it was run: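 Mouse POLRMT, TFAM and TFB2M with linearized pUC-LSP template in 10 mM Tris-HCl pH 7.5, 10 mM MgCl2, 40 mM NaCl; compounds at 10 μM or serial dilution, 10 min RT preincubation. Started with 500 μM each […], 2 h RT; 407 bp RNA product detected by hybridized Eu-cryptate/ATTO647N probe TR-FRET (ex 340, em 665 nm).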

NCI-H23 (lung) = assay: CellTiter GLO viability assay, NCI-H23; type: cell-based
Method: The CellTiter-Glo Luminescent Cell Viability Assay (Promega) is a homogeneous method of determining the number of viable cells in culture. It is based on quantification of ATP, indicating the presence of metabolically active cells.
Cells were seeded on day 1 at cell numbers that assure assay linearity and optimal signal intensity. After incubation for 3 h in humidified chambers at 37° C./5% CO2 compounds/DMSO were added at different concentrations. […] Cells treated with the compound vehicle DMSO were used as positive controls and cells treated with 10 μM Staurosporine served as negative controls. […] Thereon, mixture and assay plates were equilibrated at room temperature for 20 min. Equal volumes of the reagent-medium-mixture was added to the volume of culture medium present in each well.
The plates were mixed at ˜200 rpm for 2 minutes on an orbital shaker. The microplates were then incubated at room temperature for 10 minutes for stabilization of the luminescent signal. Following incubation the luminescence is recorded on a Victor microplate reader (Perkin Elmer) using 200 ms integration time. The data were then analyzed with Excel using the XLFIT Plugin (dose response Fit 205) for IC50-determination. As quality control the Z′-factor was calculated from 16 positive and negative control values. Only assay results showing a Z′-factor≥0.5 were used for further analysis.

mitochondrial RNA-polymerase (POLRMT), sequence (Q8BKF1 42-1207): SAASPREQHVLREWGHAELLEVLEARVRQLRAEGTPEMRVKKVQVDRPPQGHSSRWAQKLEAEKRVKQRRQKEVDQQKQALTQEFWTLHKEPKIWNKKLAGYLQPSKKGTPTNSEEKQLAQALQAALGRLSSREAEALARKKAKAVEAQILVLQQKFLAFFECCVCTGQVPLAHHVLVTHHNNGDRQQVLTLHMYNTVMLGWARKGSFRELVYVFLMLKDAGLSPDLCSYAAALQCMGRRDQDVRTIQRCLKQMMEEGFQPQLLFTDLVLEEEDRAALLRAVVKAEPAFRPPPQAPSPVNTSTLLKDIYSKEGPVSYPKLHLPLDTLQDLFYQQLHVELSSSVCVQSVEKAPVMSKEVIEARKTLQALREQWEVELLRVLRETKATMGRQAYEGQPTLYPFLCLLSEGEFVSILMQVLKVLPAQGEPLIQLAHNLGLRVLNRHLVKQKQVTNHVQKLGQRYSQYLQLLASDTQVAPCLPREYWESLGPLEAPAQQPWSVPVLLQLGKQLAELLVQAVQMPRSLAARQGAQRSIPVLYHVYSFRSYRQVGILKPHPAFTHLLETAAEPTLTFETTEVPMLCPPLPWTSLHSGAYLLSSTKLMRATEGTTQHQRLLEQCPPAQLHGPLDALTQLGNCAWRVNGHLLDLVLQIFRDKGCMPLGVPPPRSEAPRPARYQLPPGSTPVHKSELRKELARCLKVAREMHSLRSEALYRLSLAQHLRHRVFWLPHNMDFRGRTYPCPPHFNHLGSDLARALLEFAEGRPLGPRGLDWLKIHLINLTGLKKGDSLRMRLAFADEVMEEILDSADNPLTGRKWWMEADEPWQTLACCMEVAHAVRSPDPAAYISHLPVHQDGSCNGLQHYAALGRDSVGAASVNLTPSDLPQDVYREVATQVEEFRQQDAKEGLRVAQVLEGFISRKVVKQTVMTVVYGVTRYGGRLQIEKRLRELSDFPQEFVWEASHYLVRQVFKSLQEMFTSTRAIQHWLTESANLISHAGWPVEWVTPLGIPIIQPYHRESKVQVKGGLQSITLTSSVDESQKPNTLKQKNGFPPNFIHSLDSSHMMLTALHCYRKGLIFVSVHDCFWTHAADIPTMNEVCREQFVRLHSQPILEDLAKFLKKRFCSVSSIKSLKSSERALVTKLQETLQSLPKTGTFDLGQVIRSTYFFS

Structure (SMILES): C[C@@H](Oc1ccc2c(-c3ccc(F)cc3Cl)cc(=O)oc2c1)C(=O)N1CCC[C@H](C(=O)O)C1 [Compound 14, (3S)-1-[(2R)-2-[4-(2-chloro-4-fluoro-phenyl)-2-oxo-chromen-7-yl]oxypropanoyl]piperidine-3-carboxylic acid]
- IC50 [1]: < 0.02 µM
- IC50 (NCI-H23 (lung); Homo sapiens, NCI-H23 (lung), 144 h, read-out: IC50 (μM) incubation time 144 h): 1 to 10 µM
- sensitivity of the cell line (in words) (NCI-H23 (lung); NCl-H23): moderate sensitivity
